The values that follow come from publication PMC8394219, “In Vitro Nephrotoxicity Studies of Established and Experimental Platinum-Based Compounds” (Biomedicines, 2021).

For series [1], the system named is ciPTEC. Description: Gene expression profiling by high-throughput RT-qPCR in ciPTECs. The format is cell-based, human. Conditions: 24 h; for expression of genes related to transcription factors (general): PN149 20 µM, cisplatin 50 µM, oxaliplatin 150 µM; for HMOX1 gene expression: ROS-inducible gene; for IL-8 gene expression: marker for inflammation; for PMAIP1 gene expression: pro-apoptotic gene. The protocol:
Gene expression profiles were generated using a high-throughput RT-qPCR method previously established in the institute. ciPTECs were cultivated in T25 flasks as stated before. […] RNA isolation and generation of gene expression profiles using a Fluidigm dynamic array on a BioMark™ (Rheinau, Germany) system were performed as previously described. For comparative analysis of ciPTEC with primary kidney cells, 5 × 10^5 NT cells were seeded in 10 cm dishes and cultivated for 24 h. […] Gene expression profiles in ciPTEC were generated in three independent experiments. Due to the limited amount of tissue material, gene expression analysis in primary kidney cells was performed in two independent experiments.

Series [2] has as its system ciPTEC. Put plainly: Intracellular platinum accumulation by AAS in ciPTECs. The format is in vitro ADME, human. Conditions: 2 h. The protocol:
The renal cell line ciPTEC (conditionally immortalized proximal tubule epithelial cells), which was purchased from Dr. Martijn Wilmer, was used in the current study. ciPTECs were cultured in DMEM-HAM’s F12 phenol red-free medium (Gibco, Thermo Fisher Scientific, Dreieich, Germany) supplemented with 10% fetal calf serum (FCS) (Invitrogen, Darmstadt, Germany), 5 µg/mL insulin, 5 µg/mL transferrin, 5 ng/mL selenium, 36 ng/mL hydrocortisone, 10 ng/mL EGF (epidermal growth factor) and 40 pg/mL tri-iodothyronine (Sigma-Aldrich, Steinheim, Germany). For maintaining the proliferation status, cells were cultured at 33 °C in a humidified atmosphere of 5% CO2 in medium supplemented with 1% penicillin/streptomycin (P/S) (Sigma-Aldrich, Steinheim, Germany). […]
Atomic absorption spectroscopy (AAS) was used to determine the intracellular accumulation after treatment with the platinum compounds. ciPTECs were seeded in T75 flasks and cultivated as stated before. […] Cells were then harvested via centrifugation and total cell count was determined. […] The residue was dissolved in 0.2% HNO3 and platinum amount was analyzed at a wavelength of […] in a graphite furnace using a PinAAcle 900 T (Perkin Elmer, Waltham, MA, USA). […] Intracellular accumulation was determined in three independent experiments and was calculated as ng Pt/10^6 cells.

For series [3], the system named is ciPTEC. Put plainly: Cytotoxicity by relative cell count (RCC). The format is cell-based, human. The note with it: 24 h incubation; for IC50: cell count after 48 h post-cultivation; for cell number compared to the control: 48 h post-cultivation. The procedure:
The renal cell line ciPTEC (conditionally immortalized proximal tubule epithelial cells), which was purchased from Dr. Martijn Wilmer, was used in the current study. ciPTECs were cultured in DMEM-HAM’s F12 phenol red-free medium (Gibco, Thermo Fisher Scientific, Dreieich, Germany) supplemented with 10% fetal calf serum (FCS) (Invitrogen, Darmstadt, Germany), 5 µg/mL insulin, 5 µg/mL transferrin, 5 ng/mL selenium, 36 ng/mL hydrocortisone, 10 ng/mL EGF (epidermal growth factor) and 40 pg/mL tri-iodothyronine (Sigma-Aldrich, Steinheim, Germany). For maintaining the proliferation status, cells were cultured at 33 °C in a humidified atmosphere of 5% CO2 in medium supplemented with 1% penicillin/streptomycin (P/S) (Sigma-Aldrich, Steinheim, Germany). […] For comparative analysis with the data obtained with the permanent cell line ciPTEC, studies were performed with primary patient-derived renal normal tissue cells (NT), which were obtained from patients at the University Medical Center Mainz. Cells were isolated from primary renal cancer samples of patients who underwent nephrectomy at the Department of Urology, University Medical Center Mainz. The study was performed in agreement with the Declaration of Helsinki and approved by local ethics committee (No. 837.005.09, Landesärztekammer Rheinland-Pfalz, Mainz, Germany). Each patient provided informed consent. NT cells were cultivated in RPMI-1640 medium (Sigma-Aldrich, Steinheim, Germany) containing 10% FCS and 5% P/S at 37 °C in a humidified atmosphere of 5% CO2.
Toxicity was determined by relative cell count (RCC). ciPTECs were seeded in duplicates in T25 flasks and cultivated as stated before. […] Cell count was then determined using a CASY® cell counter (CASY® TTC Cell Counter & Analyzer System). The cell counts of the treated samples were normalized to the untreated control to obtain the RCC expressed as percentage. RCC was determined in three independent experiments.

Series [4] concerns organic cation transporter 2 (OCT2). The arrangement: method as in PMID 17582384, PMID 21144842. Conditions: cited from earlier work.
The nature of series [5]: Anti-oxidant capacity: fluorescein consumption induced by AAPH-derived peroxyl radicals. The note with it: for effect on consumption of fluorescein: fluorescein 10 µM, AAPH 50 mM, phosphate buffer pH 7.4, 37 °C, cisplatin 10 µM, PN149 10, 25, 50 µM. The procedure: The influence of PN149 on the rates of the reaction of fluorescein with free radicals generated by the azo initiator 2,2′-azobis(2-amidinopropane) dihydrochloride (AAPH) was studied according to [35] in phosphate buffer (PB, 50 mM, pH 7.4) by measuring the decay of the probe at 494 nm with absorption spectrophotometer Specord UV–Vis equipped with a thermostated cell maintained at 37 °C. […] The lag phase of the reaction means no changes in the optical density of the reaction mixture. AAPH and fluorescein were purchased from Sigma-Aldrich, JM216 [e-ammine-d-(cyclohexylamine)-a,f-bis(acetato)-b,c-dichloroplatinum(IV)] was obtained as described in [36].

In the next series the test system is MATE1. Conditions: cited from earlier work.
Series [6] has as its system testicular germ cell tumors. The arrangement: method as in PMID 12835671. Conditions: combination therapy against testicular germ cell tumors ref 2; cited from earlier work.
In the next series the test system is MATE2-K. Conditions: cited from earlier work.
Series [7] has as its system primary patient-derived renal normal tissue cells (NT). Put plainly: Gene expression profiling by high-throughput RT-qPCR in primary renal normal tissue cells. The format is cell-based, human. Conditions: normal tissue (primary kidney cells), 20 µM cisplatin, 24 h. The procedure: The renal cell line […] (conditionally immortalized proximal tubule epithelial cells), which was purchased from Dr. Martijn Wilmer, was used in the current study. […] For maintaining the proliferation status, cells were cultured at 33 °C in a humidified atmosphere of 5% CO2 in medium supplemented with 1% penicillin/streptomycin (P/S) (Sigma-Aldrich, Steinheim, Germany). For the experiments, […] were seeded at a density of 55,000 cells/cm^2 in cell culture flasks and were cultivated for 24 h at 33 °C. After 24 h, cells were transferred to 37 °C for maturation, while the medium was refreshed with medium containing no P/S. Cells were kept at 37 °C for 7 days while the medium was replaced every 2-3 days. For comparative analysis with the data obtained with the permanent cell line […], studies were performed with primary patient-derived renal normal tissue cells (NT), which were obtained from patients at the University Medical Center Mainz. Cells were isolated from primary renal cancer samples of patients who underwent nephrectomy at the Department of Urology, University Medical Center Mainz. The study was performed in agreement with the Declaration of Helsinki and approved by local ethics committee (No. 837.005.09, […]-Pfalz, Mainz, Germany). Each patient provided informed consent. […]
On the technique in general: Real-time PCR tracks product formation cycle by cycle.

In a further series the test system is ciPTECs. The arrangement: method as in PMID 26821801. The note with it: ciPTECs treated with cisplatin for 24 h, MTT assay ref 45; read-out: TC50 (≡ IC50); cited from earlier work. In general terms: Formazan colour is commonly taken as a measure of viable cells.

Usually IC50 stands for the concentration needed to halve the response being measured. `N.N.O=C([O-])C1(C(=O)[O-])CCC1.[Pt+2]` [Carboplatin]: in the series on ciPTEC [1], the NFKB2 gene expression result is “repressed transcript levels”, the “expression of genes related to transcription factors (general)” value (shortened to “expression of genes related”) is listed as “no general down-regulation”, the HMOX1 gene expression entry was “strongly induced” and the IL-8 gene expression entry was “repressed gene expression”. Further, the PMAIP1 gene expression entry in the series with ciPTEC [1] is “strong concentration-dependent increase”. In addition, the “ng Pt/10^6 Cells (platinum accumulation)” value in the series on ciPTEC [2] (300 µM carboplatin) was found to be 18 ± 2 ng Pt/10^6 cells. In the series with ciPTEC [3], half-maximal inhibition (IC50) required 175 µM. Moreover, the “uptake via / affinity to OCT2” value in series [4] is recorded as “no affinity to this transporter”.
For “e-ammine-d-(3-amino-2,2,5,5-tetramethylpyrrolidine-1-oxyl)-a,f-bis(butanoato)-b,c-dichloro-platinum(IV) [PN149]”, in the series on ciPTEC [1], the NFKB2 gene expression entry is given as “repressed transcript levels”, the “expression of genes related” value is “widespread gene repression”, the HMOX1 gene expression result is on record as “strongly induced” and the IL-8 gene expression entry is given as “repressed gene expression”. In addition, the PMAIP1 gene expression entry with ciPTEC [1] was “peaked at 20 µM”. Moreover, the HSPA1A gene expression entry with ciPTEC [1] (heat-shock sensitive gene) was “strong concentration-dependent increase”. Besides, the “effect on consumption of fluorescein” value in series [5] is listed as “effectively inhibited the consumption of fluorescein”. Besides, the “cell number compared to the control” value in the series on ciPTEC [3] (concentration not stated (Figure 2A)) is listed as “less than 5%”. The half-maximal inhibitory concentration (IC50) with ciPTEC [3] stood at 6 µM.
Take `N.N.[Cl][Pt][Cl]` [Cisplatin]: in the series on ciPTEC [1] (20 µM cisplatin), the “expression of DNA repair-related genes” value is “increased expression of several repair-related genes”. Also, in the series on ciPTEC [1], the NFKB2 gene expression result is “slightly enhanced”, the “expression of genes related” value was “strong down-regulation of gene transcripts”, the HMOX1 gene expression entry is listed as “slightly lesser effects” and the IL-8 gene expression entry is reported as “increased transcript levels”. In addition, the PMAIP1 gene expression result in the series with ciPTEC [1] is “strong concentration-dependent increase”. Besides, the “affinity for MATE1” value with MATE1 is on record as “only low affinity for MATE1”. For the same compound, the “effect on consumption of fluorescein” value in series [5] is listed as “only slightly slowed down the consumption of fluorescein”. Moreover, the “cell number compared to the control” value in the series with ciPTEC [3] (50 µM) is “less than 10%”. In the series on ciPTEC [3], the IC50 was 13 µM. For the same compound, the cure rates result in series [6] was “over 80%”. Also, in the series on MATE2-K, the “affinity for MATE2-K” value is “no affinity for MATE2-K”. The “expression of DNA repair-related genes” value in [7] was “reduced transcript levels”. Moreover, in the series on ciPTECs, the concentration for half-maximal inhibition (IC50) is 34 µM.
For `CC(=O)[O-].CC(=O)[O-].N.NC1CCCCC1.[Cl-].[Cl-].[Pt+4]` [JM216, e-ammine-d-(cyclohexylamine)-a,f-bis(acetato)-b,c-dichloroplatinum(IV)], in series [5] (JM216 10 M as printed, data not shown), the “kinetics of fluorescein consumption” value is reported as “practically coincided with curve 2 for cisplatin”.
On to `O=C1[O][Pt]2([NH][C@@H]3CCCC[C@H]3[NH]2)[O]C1=O` [Oxaliplatin], for which, in the series with ciPTEC [1], the NFKB2 gene expression result is reported as “slightly enhanced”, the “expression of genes related” value is reported as “widespread gene repression was restricted to the highest concentration used”, the HMOX1 gene expression result is recorded as “slightly lesser effects” and the IL-8 gene expression entry is recorded as “increased transcript levels”. Also, the PMAIP1 gene expression entry with ciPTEC [1] is given as “strong concentration-dependent increase”. Further, the “affinity for MATE1” value with MATE1 is “substrate for both MATE1 and MATE2-K”. Also, the “ng Pt/10^6 Cells (platinum accumulation)” value in the series on ciPTEC [2] (50 µM) is recorded as 11 ± 2 ng Pt/10^6 cells. 51 µM corresponded to half-maximal inhibition with ciPTEC [3] (IC50).
